# Test results taken from ChEMBL document CHEMBL4804286, “3-amino-4-(4-(4 (dimethylcarbamoyl) phenyl)-1,4-diazepan-1-yl) thieno [2,3-b] pyridine-2-carboxamide for use in cancer therapy and formulations comprising the same” (2020).
# Where “and” joins values, the source holds several entries; their conditions need not be identical. Equal entries are not always repeated.
# What was measured:
# Parameters in all cases: scale not given: the % may be the effect or the level left
# [1] = target: Tyrosine-protein kinase ITK/TSK (Homo sapiens) (UniProt Q08881); test: Inhibition of human ITK assessed as percent of control at 2000 nM by KINOMEscan assay relative to control
# [2] = target: Serine/threonine-protein kinase 25 (Homo sapiens) (UniProt O00506); test: Inhibition of human YSK1 assessed as percent of control at 2000 nM by KINOMEscan assay relative to control
# [3] = target: Serine/threonine-protein kinase Nek6 (Homo sapiens) (UniProt Q9HC98); test: Inhibition of human NEK6 assessed as percent of control at 2000 nM by KINOMEscan assay relative to control
# [4] = target: Mitogen-activated protein kinase 14 (Homo sapiens) (UniProt Q16539); test: Inhibition of human p38-alpha assessed as percent of control at 2000 nM by KINOMEscan assay relative to control
# [5] = target: STE20/SPS1-related proline-alanine-rich protein kinase (Homo sapiens) (UniProt Q9UEW8); test: Inhibition of human STK39 assessed as percent of control at 2000 nM by KINOMEscan assay relative to control
# [6] = target: Ribosomal protein S6 kinase alpha-1 (Homo sapiens) (UniProt Q15418); test: Inhibition of human C-terminal RSK1 kinase domain 2 assessed as percent of control at 2000 nM by KINOMEscan assay relative to control
# [7] = target: Dual specificity mitogen-activated protein kinase kinase 1 (Homo sapiens) (UniProt Q02750); test: Inhibition of human MEK1 assessed as percent of control at 2000 nM by KINOMEscan assay relative to control
# [8] = target: Tyrosine-protein kinase HCK (Homo sapiens) (UniProt P08631); test: Inhibition of human HCK assessed as percent of control at 2000 nM by KINOMEscan assay relative to control
# [9] = target: Phosphatidylinositol 4-phosphate 5-kinase type-1 alpha (Homo sapiens) (UniProt Q99755); test: Inhibition of human PIP5K1A assessed as percent of control at 2000 nM by KINOMEscan assay relative to control
# [10] = target: Fibroblast growth factor receptor 3 (Homo sapiens) (UniProt P22607); test: Inhibition of human FGFR3 assessed as percent of control at 2000 nM by KINOMEscan assay relative to control
# [11] = system: Phosphatidylinositol 4,5-bisphosphate 3-kinase catalytic subunit alpha isoform (Homo sapiens), P42336 [E545A]; test: Inhibition of human PIK3CA E545A mutant assessed as percent of control at 2000 nM by KINOMEscan assay relative to control
# [12] = target: BDNF/NT-3 growth factors receptor (Homo sapiens) (UniProt Q16620); test: Inhibition of human TRKB assessed as percent of control at 2000 nM by KINOMEscan assay relative to control
# [13] = target: Vascular endothelial growth factor receptor 2 (Homo sapiens) (UniProt P35968); test: Inhibition of human VEGFR2 assessed as percent of control at 2000 nM by KINOMEscan assay relative to control
# [14] = target: Protein kinase C delta type (Homo sapiens) (UniProt Q05655); test: Inhibition of human PRKCD assessed as percent of control at 2000 nM by KINOMEscan assay relative to control
# [15] = target: Dual specificity protein kinase CLK2 (Homo sapiens) (UniProt P49760); test: Inhibition of human CLK2 assessed as percent of control at 2000 nM by KINOMEscan assay relative to control
# [16] = target: TRAF2 and NCK-interacting protein kinase (Homo sapiens) (UniProt Q9UKE5); test: Inhibition of human TNIK assessed as percent of control at 2000 nM by KINOMEscan assay relative to control
# [17] = target: Platelet-derived growth factor receptor beta (Homo sapiens) (UniProt P09619); test: Inhibition of human PDGFRB assessed as percent of control at 2000 nM by KINOMEscan assay relative to control
# [18] = target: Serine/threonine-protein kinase PRP4 homolog (Homo sapiens) (UniProt Q13523); test: Inhibition of human PRP4 assessed as percent of control at 2000 nM by KINOMEscan assay relative to control
# [19] = target: Ephrin type-A receptor 5 (Homo sapiens) (UniProt P54756); test: Inhibition of human EPHA5 assessed as percent of control at 2000 nM by KINOMEscan assay relative to control
# [20] = target: Myosin light chain kinase, smooth muscle (Homo sapiens) (UniProt Q15746); test: Inhibition of human MYLK assessed as percent of control at 2000 nM by KINOMEscan assay relative to control
# [21] = target: Interleukin-1 receptor-associated kinase 1 (Homo sapiens) (UniProt P51617); test: Inhibition of human IRAK1 assessed as percent of control at 2000 nM by KINOMEscan assay relative to control
# [22] = target: Ribosomal protein S6 kinase alpha-5 (Homo sapiens) (UniProt O75582); test: Inhibition of human N-terminal RPS6KA5 kinase domain 1 assessed as percent of control at 2000 nM by KINOMEscan assay relative to control
# [23] = target: Interleukin-1 receptor-associated kinase 3 (Homo sapiens) (UniProt Q9Y616); test: Inhibition of human IRAK3 assessed as percent of control at 2000 nM by KINOMEscan assay relative to control
# [24] = target: Ribosomal protein S6 kinase alpha-1 (Homo sapiens) (UniProt Q15418); test: Inhibition of human N-terminal RSK1 kinase domain 1 assessed as percent of control at 2000 nM by KINOMEscan assay relative to control
# [25] = system: Tyrosine-protein kinase ABL1 (Homo sapiens), P00519 [UNDEFINED MUTATION]; test: Inhibition of phosphorylated human ABL1 […] mutant assessed as percent of control at 2000 nM by KINOMEscan assay relative to control
# [26] = target: Inhibitor of nuclear factor kappa-B kinase subunit beta (Homo sapiens) (UniProt O14920); test: Inhibition of human IKK-beta assessed as percent of control at 2000 nM by KINOMEscan assay relative to control
# [27] = target: Leukocyte tyrosine kinase receptor (Homo sapiens) (UniProt P29376); test: Inhibition of human LTK assessed as percent of control at 2000 nM by KINOMEscan assay relative to control
# [28] = target: Phosphatidylinositol 4-phosphate 3-kinase C2 domain-containing subunit beta (Homo sapiens) (UniProt O00750); test: Inhibition of human PIK3CB assessed as percent of control at 2000 nM by KINOMEscan assay relative to control
# [29] = system: Receptor-type tyrosine-protein kinase FLT3 (Homo sapiens), P36888 [UNDEFINED MUTATION]; test: Inhibition of human FLT3 ITD/F691L double mutant assessed as percent of control at 2000 nM by KINOMEscan assay relative to control
# [30] = system: Mast/stem cell growth factor receptor Kit (Homo sapiens), P10721 [V559D,V654A]; test: Inhibition of human KIT V559D/V654A double mutant assessed as percent of control at 2000 nM by KINOMEscan assay relative to control
# Ribosomal protein S6 kinase alpha-1 (Homo sapiens), sequence (Q15418 whole entry, the tested form may be a part): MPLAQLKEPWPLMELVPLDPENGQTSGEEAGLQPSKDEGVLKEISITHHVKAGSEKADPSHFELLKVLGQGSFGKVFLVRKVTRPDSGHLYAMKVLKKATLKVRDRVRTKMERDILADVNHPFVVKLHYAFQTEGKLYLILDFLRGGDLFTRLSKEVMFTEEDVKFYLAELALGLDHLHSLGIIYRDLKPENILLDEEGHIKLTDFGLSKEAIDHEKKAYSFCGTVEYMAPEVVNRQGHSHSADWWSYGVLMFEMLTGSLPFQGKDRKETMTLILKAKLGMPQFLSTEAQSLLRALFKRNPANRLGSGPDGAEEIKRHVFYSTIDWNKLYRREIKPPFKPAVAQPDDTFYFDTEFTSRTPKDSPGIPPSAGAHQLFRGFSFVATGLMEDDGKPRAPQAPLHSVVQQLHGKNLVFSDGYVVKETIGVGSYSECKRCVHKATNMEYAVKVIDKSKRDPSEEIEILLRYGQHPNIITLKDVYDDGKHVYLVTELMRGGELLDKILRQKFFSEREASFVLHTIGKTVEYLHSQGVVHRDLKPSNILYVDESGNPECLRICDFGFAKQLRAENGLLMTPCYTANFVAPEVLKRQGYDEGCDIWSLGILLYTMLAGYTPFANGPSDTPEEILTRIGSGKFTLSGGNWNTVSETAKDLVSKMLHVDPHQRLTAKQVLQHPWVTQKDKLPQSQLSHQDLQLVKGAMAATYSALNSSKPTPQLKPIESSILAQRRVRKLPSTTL
# Mitogen-activated protein kinase 14 (Homo sapiens), sequence (Q16539 whole entry): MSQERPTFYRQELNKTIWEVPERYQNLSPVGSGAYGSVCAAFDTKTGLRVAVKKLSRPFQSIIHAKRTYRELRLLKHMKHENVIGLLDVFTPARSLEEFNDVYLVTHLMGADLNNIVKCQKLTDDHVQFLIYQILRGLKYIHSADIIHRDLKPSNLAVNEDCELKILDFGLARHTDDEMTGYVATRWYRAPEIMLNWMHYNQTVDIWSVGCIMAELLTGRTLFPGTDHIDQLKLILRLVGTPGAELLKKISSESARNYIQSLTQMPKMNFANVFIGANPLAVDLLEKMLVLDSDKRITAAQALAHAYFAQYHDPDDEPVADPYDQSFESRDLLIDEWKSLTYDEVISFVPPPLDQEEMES
# Phosphatidylinositol 4-phosphate 3-kinase C2 domain-containing subunit beta (Homo sapiens), sequence (O00750 whole entry, the tested form may be a part): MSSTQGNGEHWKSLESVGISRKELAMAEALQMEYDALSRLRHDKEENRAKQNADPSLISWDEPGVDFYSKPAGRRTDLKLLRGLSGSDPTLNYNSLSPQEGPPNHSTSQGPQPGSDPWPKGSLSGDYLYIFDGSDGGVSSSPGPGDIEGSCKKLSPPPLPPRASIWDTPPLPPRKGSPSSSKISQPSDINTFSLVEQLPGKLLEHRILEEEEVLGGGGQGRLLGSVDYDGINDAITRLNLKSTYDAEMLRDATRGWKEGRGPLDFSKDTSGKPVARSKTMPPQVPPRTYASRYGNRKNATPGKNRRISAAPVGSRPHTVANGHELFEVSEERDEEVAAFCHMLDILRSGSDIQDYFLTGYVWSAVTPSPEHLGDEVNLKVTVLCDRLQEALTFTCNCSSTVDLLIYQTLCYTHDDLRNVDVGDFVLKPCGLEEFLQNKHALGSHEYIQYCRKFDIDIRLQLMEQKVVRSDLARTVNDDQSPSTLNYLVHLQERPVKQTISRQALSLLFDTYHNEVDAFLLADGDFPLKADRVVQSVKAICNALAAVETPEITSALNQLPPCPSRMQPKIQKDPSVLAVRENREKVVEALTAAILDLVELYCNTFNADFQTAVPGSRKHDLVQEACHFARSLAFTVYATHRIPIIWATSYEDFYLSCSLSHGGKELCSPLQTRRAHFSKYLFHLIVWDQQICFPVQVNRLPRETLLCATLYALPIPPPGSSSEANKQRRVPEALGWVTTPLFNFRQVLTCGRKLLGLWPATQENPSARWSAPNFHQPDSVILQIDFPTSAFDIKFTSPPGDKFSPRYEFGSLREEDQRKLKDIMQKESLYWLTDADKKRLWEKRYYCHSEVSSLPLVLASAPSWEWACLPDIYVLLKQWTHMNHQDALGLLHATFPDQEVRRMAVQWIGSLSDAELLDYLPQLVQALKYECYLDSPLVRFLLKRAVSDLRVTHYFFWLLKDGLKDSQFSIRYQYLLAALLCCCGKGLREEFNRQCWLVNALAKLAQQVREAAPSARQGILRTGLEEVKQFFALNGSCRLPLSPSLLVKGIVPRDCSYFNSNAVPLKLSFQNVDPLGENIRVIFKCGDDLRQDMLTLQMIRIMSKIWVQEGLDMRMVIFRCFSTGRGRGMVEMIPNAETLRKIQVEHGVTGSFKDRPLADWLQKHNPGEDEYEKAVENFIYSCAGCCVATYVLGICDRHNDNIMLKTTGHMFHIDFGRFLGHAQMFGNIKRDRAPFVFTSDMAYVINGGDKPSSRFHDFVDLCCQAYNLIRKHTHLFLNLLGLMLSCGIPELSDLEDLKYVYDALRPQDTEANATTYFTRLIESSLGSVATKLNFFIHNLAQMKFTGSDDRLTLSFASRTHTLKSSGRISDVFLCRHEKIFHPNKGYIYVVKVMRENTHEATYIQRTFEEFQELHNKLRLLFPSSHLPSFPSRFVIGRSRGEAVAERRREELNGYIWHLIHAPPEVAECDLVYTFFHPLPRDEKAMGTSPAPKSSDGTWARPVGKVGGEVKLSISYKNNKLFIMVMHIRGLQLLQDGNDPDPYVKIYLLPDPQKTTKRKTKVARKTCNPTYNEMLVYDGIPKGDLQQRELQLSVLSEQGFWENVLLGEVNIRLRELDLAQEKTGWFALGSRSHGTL
# Platelet-derived growth factor receptor beta (Homo sapiens), sequence (P09619 whole entry): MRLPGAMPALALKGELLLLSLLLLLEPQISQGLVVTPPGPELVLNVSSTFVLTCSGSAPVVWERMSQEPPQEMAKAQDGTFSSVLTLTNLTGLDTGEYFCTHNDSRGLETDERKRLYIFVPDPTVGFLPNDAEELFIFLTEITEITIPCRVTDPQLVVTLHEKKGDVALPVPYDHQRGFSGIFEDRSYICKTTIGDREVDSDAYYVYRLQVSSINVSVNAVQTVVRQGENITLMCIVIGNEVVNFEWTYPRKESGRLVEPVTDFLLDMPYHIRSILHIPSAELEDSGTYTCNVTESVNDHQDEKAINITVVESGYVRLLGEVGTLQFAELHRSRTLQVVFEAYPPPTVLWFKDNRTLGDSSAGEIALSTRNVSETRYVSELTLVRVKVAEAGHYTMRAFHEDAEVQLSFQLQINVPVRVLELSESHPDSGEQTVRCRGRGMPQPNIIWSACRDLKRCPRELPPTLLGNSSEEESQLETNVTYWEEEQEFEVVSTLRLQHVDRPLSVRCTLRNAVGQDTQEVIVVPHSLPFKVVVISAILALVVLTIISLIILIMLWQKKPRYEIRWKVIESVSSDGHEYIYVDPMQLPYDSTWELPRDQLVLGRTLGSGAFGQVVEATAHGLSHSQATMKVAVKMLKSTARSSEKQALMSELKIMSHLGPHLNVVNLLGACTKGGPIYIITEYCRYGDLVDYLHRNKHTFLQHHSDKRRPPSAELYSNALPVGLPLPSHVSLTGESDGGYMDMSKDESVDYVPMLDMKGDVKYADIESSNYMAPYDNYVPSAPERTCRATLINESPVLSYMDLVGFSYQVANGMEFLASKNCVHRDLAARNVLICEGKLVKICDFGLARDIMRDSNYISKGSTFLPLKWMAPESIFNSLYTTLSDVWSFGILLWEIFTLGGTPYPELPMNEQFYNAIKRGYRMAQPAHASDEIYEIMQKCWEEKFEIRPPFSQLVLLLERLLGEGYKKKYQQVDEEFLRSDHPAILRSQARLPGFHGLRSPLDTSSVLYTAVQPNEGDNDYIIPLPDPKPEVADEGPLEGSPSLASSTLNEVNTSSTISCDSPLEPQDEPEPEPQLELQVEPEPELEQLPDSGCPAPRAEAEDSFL
# Receptor-type tyrosine-protein kinase FLT3 (Homo sapiens), P36888 [UNDEFINED MUTATION], sequence (P36888 whole entry, looked up, stated change not applied): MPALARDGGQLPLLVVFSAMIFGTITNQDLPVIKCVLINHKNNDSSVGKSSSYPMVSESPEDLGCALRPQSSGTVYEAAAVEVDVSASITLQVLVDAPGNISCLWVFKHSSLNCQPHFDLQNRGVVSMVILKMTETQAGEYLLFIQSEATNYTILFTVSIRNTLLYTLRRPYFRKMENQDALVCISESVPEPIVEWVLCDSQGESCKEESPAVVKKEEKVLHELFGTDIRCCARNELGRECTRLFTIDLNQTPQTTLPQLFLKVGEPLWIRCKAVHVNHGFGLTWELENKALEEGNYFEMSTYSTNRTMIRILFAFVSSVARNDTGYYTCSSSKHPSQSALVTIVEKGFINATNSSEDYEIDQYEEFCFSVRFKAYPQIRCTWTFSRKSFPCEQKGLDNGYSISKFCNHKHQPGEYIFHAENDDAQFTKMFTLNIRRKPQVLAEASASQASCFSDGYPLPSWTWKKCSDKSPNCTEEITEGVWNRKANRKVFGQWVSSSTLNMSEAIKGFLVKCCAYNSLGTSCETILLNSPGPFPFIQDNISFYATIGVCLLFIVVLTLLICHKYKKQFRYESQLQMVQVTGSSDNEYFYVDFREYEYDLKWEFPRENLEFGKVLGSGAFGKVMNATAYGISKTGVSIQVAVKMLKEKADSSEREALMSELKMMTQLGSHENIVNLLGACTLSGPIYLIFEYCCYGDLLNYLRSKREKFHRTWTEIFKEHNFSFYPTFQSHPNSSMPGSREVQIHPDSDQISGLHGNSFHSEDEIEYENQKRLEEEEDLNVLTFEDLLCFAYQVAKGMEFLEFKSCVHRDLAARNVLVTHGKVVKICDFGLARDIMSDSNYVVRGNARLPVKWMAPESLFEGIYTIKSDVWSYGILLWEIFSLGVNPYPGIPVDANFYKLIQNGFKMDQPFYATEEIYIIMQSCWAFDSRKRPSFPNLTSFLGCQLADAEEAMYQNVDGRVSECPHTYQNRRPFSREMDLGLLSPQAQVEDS
smiles,measurement,setting,value
CN(C)C(=O)c1ccc(N2CCCN(c3ccnc4sc(C(N)=O)c(N)c34)CC2)cc1,Activity,[1],88% and 87%
same,Activity,[2],76% and 98%
same,Activity,[3],92% and 100%
same,Activity,[4],93% and 99%
same,Activity,[5],93% and 94%
same,Activity,[6],100% and 86%
same,Activity,[7],93% and 83%
same,Activity,[8],96%
same,Activity,[9],100%
same,Activity,[10],98% and 99%
same,Activity,[11],100% and 92%
same,Activity,[12],88% and 78%
same,Activity,[13],67% and 84%
same,Activity,[14],100% and 92%
same,Activity,[15],75% and 83%
same,Activity,[16],100% and 91%
same,Activity,[17],100% and 93%
same,Activity,[18],100% and 88%
same,Activity,[19],89% and 96%
same,Activity,[20],74% and 71%
same,Activity,[21],94% and 84%
same,Activity,[22],75% and 100%
same,Activity,[23],93% and 89%
same,Activity,[24],98% and 96%
same,Activity,[25],94% and 77%
same,Activity,[26],89% and 71%
same,Activity,[27],90% and 77%
same,Activity,[28],100% and 95%
same,Activity,[29],95% and 75%
same,Activity,[30],100%
